Laboratory results from publication PMC5298231, “The Malaria Parasite's Lactate Transporter PfFNT Is the Target of Antiplasmodial Compounds Identified in Whole Cell Phenotypic Screens” (PLoS Pathogens, 2017).
Like-named read-outs stand apart in the source and are kept apart here.

System: erythrocytes infected with 3D7 trophozoites
Type: cell-based, Plasmodium falciparum

COc1ccc2c(c1)OC(O)(C(F)(F)C(F)(F)F)CC2=O (centres unmarked) [MMV007839]
NADP+, Average (3hr): -0.3346
Ornithine, Average (3hr): -0.1015
Orotate, Average (3hr): -1.466
Orotidine 5-Phosphate, Average (3hr): -1.489
Orotidine, Average (3hr): -1.057
PAEF, Average (3hr): -1.307
PD, Average (3hr): 0.2119
PDAV, Average (3hr): 0.3685
PE, Average (3hr): 0.9141
PEE, Average (3hr): -0.2135
PHF, Average (3hr): 0.05129
PPVQ, Average (3hr): -0.3492
PVNF, Average (3hr): -0.8559
PVQ, Average (3hr): 0.3164
PVQA, Average (3hr): -1.408
Pantothenate, Average (3hr): -0.2954
Phenylalanine, Average (3hr): -0.1326
Phosphoenolpyruvate, Average (3hr): 0.2604
Pipecolate, Average (3hr): 0.1041
Proline, Average (3hr): -0.09895
Pyridoxine, Average (3hr): -0.07403
Pyruvate, Average (3hr): 1.858
Ribose-5-Phosphate, Average (3hr): 0.8813
S-Adenosyl-L-homocysteine, Average (3hr): -0.314
SDGLA, Average (3hr): -0.3844
SFGD, Average (3hr): -0.2955
Sedoheptulose-1/7-Phosphate, Average (3hr): 0.2199
Serine, Average (3hr): 0.166
Succinate Semialdehyde, Average (3hr): -0.7119
Succinate, Average (3hr): -0.2462
TNVK, Average (3hr): -1.745
Threonine, Average (3hr): 0.01502
Tryptophan, Average (3hr): -0.2359
Tyrosine, Average (3hr): -0.01653
UDP, Average (3hr): -0.7159
UDP-N-acetyl-D-glucosamine, Average (3hr): 0.05247
UDP-glucose, Average (3hr): -0.07837
UMP, Average (3hr): -0.2624
Uracil, Average (3hr): -0.6081
Valine, Average (3hr): -0.194
Xanthine, Average (3hr): -0.464
dADP, Average (3hr): -1.193
dATP, Average (3hr): -0.03116
dCDP, Average (3hr): 0.3315
dGMP, Average (3hr): 0.1661
dTMP, Average (3hr): 0.1316
dTTP, Average (3hr): -0.08156
dUMP, Average (3hr): 1.365
myo-Inositol, Average (3hr): -0.258
sn-Glycerol 3-Phosphate, Average (3hr): 1.559
sn-glycero-3-Phospho-1-inositol, Average (3hr): 0.1698
1-3 (2-3)-Bisphopshateglycerate, Average (6hr): 0.3636
2-Hydroxyglutarate, Average (6hr): -0.3824
2-Ketoglutarate, Average (6hr): -0.4713
3-Phoshoglycerate, Average (6hr): 0.02516
3-Phospho-serine, Average (6hr): -0.6364
4-Aminobutanoate, Average (6hr): 1.092
5-Phosphoribosyl-Pyrophosphate, Average (6hr): 0.556
6-Phosphogluconate, Average (6hr): -0.3794
ADP, Average (6hr): -0.3027
AMP, Average (6hr): -0.04039
ATLS, Average (6hr): -0.1601
ATP, Average (6hr): -0.3608
Acetyl-CoA, Average (6hr): -0.9886
Acetyl-L-alanine, Average (6hr): -0.3969
Adenine, Average (6hr): -0.7079
Arginine, Average (6hr): 0.2024
Asparagine, Average (6hr): 0.205
Aspartate, Average (6hr): -0.08675
CDP, Average (6hr): -0.2824
CDP-ethanolamine, Average (6hr): -0.09908
CMP, Average (6hr): 0.2839
CTP, Average (6hr): -0.5655
Cholesteryl sulfate, Average (6hr): -0.1903
Citrate, Average (6hr): -0.1627
CoA, Average (6hr): -0.6499
Cyclic AMP, Average (6hr): -1.349
Cytidine, Average (6hr): 0.1751
DALT, Average (6hr): 0.7209
DEVG, Average (6hr): -0.06216
DGLA, Average (6hr): 0.8365
DLS, Average (6hr): -0.1236
Deoxycytidine, Average (6hr): 1.626
Dihydroorotate, Average (6hr): -1.004
ESFG, Average (6hr): 0.5044
EVGG, Average (6hr): -0.2203
Erythrose 4-Phosphate, Average (6hr): -0.7036
FAD, Average (6hr): -0.616
FMN, Average (6hr): -0.6137
Farnesyl diphosphate, Average (6hr): -0.2783
Folate, Average (6hr): -0.4942
Fructose-1-6-Bisphosphate, Average (6hr): 0.3974
Fructose-6-Phosphate, Average (6hr): -0.1081
GDP, Average (6hr): -0.8963
GDP-mannose, Average (6hr): -1.076
GMP, Average (6hr): -0.8795
GTP, Average (6hr): -0.6956
Geranylgeranyl pyrophosphate, Average (6hr): -0.7121
Glucono-1-4-Lactone, Average (6hr): 2.219
Glucose-6-Phosphate, Average (6hr): -0.5083
Glutamate, Average (6hr): -0.02563
Glutamine, Average (6hr): 1.089
Glutathione Disulfide, Average (6hr): -0.1925
Glutathione, Average (6hr): -0.4326
Glyceraldehyde 3-Phosphate, Average (6hr): -1.148
Glycerone Phosphate, Average (6hr): -0.3794
HLD, Average (6hr): 0.5581
HVDD, Average (6hr): 0.02571
Histidine, Average (6hr): 1.263
Homoserine, Average (6hr): 0.6347
Hydroxy-L-proline, Average (6hr): -0.1227
Hypoxanthine, Average (6hr): 0.2056
IDP, Average (6hr): 0.2522
IMP, Average (6hr): -0.2109
Inosine, Average (6hr): 0.5174
Isoleucine, Average (6hr): 0.1143
LD, Average (6hr): 0.1248
Lactate, Average (6hr): 2.505
Leucine, Average (6hr): 0.06585
Lysine, Average (6hr): 1.1316
Malate, Average (6hr): -0.236
Mannitol, Average (6hr): -0.1109
Methionine, Average (6hr): -0.2224
Myristic acid, Average (6hr): -0.7184
N-Acetyl-glutamate, Average (6hr): -1.091
N-Carbamoyl-L-Aspartate, Average (6hr): -1.386
NAD+, Average (6hr): 0.1336
NADH, Average (6hr): -2.783
NADP+, Average (6hr): -0.3285
Ornithine, Average (6hr): -0.4177
Orotate, Average (6hr): -1.6355
Orotidine 5-Phosphate, Average (6hr): -1.249
Orotidine, Average (6hr): -0.6749
PAEF, Average (6hr): 0.8061
PD, Average (6hr): 1.197
PDAV, Average (6hr): 1.2
PE, Average (6hr): 1.699
PEE, Average (6hr): 1.042
PHF, Average (6hr): 0.9826
PPVQ, Average (6hr): -0.2514
PVNF, Average (6hr): 0.6194
PVQ, Average (6hr): 1.502
PVQA, Average (6hr): -0.1116
Pantothenate, Average (6hr): -0.4384
Phenylalanine, Average (6hr): 0.1437
Phosphoenolpyruvate, Average (6hr): 0.09862
Pipecolate, Average (6hr): 1.035
Proline, Average (6hr): 0.2232
Pyridoxine, Average (6hr): 0.219
Pyruvate, Average (6hr): 2.1785
Ribose-5-Phosphate, Average (6hr): 0.5462
S-Adenosyl-L-homocysteine, Average (6hr): -0.1116
SDGLA, Average (6hr): -0.7918
SFGD, Average (6hr): -0.1482
Sedoheptulose-1/7-Phosphate, Average (6hr): 0.1885
Serine, Average (6hr): 0.02139
Succinate Semialdehyde, Average (6hr): -0.438
Succinate, Average (6hr): 0.1816
TNVK, Average (6hr): -0.1213
Threonine, Average (6hr): 0.6908
Tryptophan, Average (6hr): -0.04867
Tyrosine, Average (6hr): 0.1841
UDP, Average (6hr): -0.5016
UDP-N-acetyl-D-glucosamine, Average (6hr): -0.184
UDP-glucose, Average (6hr): 0.0071
UMP, Average (6hr): -0.08541
Uracil, Average (6hr): -0.6376
Valine, Average (6hr): 0.1675
Xanthine, Average (6hr): -0.5471
dADP, Average (6hr): -0.4329
dATP, Average (6hr): 0.01926
dCDP, Average (6hr): 0.5589
dGMP, Average (6hr): -0.355
dTMP, Average (6hr): 0.4667
dTTP, Average (6hr): 0.06317
dUMP, Average (6hr): 1.053
myo-Inositol, Average (6hr): -0.254
sn-Glycerol 3-Phosphate, Average (6hr): 1.275
sn-glycero-3-Phospho-1-inositol, Average (6hr): 0.1242
1-3 (2-3)-diphopshateglycerate log2 ratio (+MMV007839/-MMV007839) (Av 1hr, 6 μM): 0.8283
2-Hydroxyglutarate log2 ratio (+MMV007839/-MMV007839) (Av 1hr, 6 μM): -0.2432
2-Ketoglutarate log2 ratio (+MMV007839/-MMV007839) (Av 1hr, 6 μM): -0.436
3-Phosho-D-glycerate log2 ratio (+MMV007839/-MMV007839) (Av 1hr, 6 μM): 0.004248
3-Phospho-serine log2 ratio (+MMV007839/-MMV007839) (Av 1hr, 6 μM): -0.2778
4-Aminobutanoate log2 ratio (+MMV007839/-MMV007839) (Av 1hr, 6 μM): 1.193
5-Phosphoribosyl-1-pyrophosphate log2 ratio (+MMV007839/-MMV007839) (Av 1hr, 6 μM): 0.3507
ADP log2 ratio (+MMV007839/-MMV007839) (Av 1hr, 6 μM): -0.09347
AMP log2 ratio (+MMV007839/-MMV007839) (Av 1hr, 6 μM): 0.1805
ATLS log2 ratio (+MMV007839/-MMV007839) (Av 1hr, 6 μM): 0.06136
ATP log2 ratio (+MMV007839/-MMV007839) (Av 1hr, 6 μM): -0.05715
Acetyl-CoA log2 ratio (+MMV007839/-MMV007839) (Av 1hr, 6 μM): -0.4647
Acetyl-L-alanine log2 ratio (+MMV007839/-MMV007839) (Av 1hr, 6 μM): 0.1907
Adenine log2 ratio (+MMV007839/-MMV007839) (Av 1hr, 6 μM): -0.6208
Arginine log2 ratio (+MMV007839/-MMV007839) (Av 1hr, 6 μM): 0.574
Asparagine log2 ratio (+MMV007839/-MMV007839) (Av 1hr, 6 μM): 0.04802
Aspartic Acid log2 ratio (+MMV007839/-MMV007839) (Av 1hr, 6 μM): 0.001665
CDP log2 ratio (+MMV007839/-MMV007839) (Av 1hr, 6 μM): -0.01089
CDP-ethanolamine log2 ratio (+MMV007839/-MMV007839) (Av 1hr, 6 μM): 0.2765
CMP log2 ratio (+MMV007839/-MMV007839) (Av 1hr, 6 μM): 0.1684
CTP log2 ratio (+MMV007839/-MMV007839) (Av 1hr, 6 μM): -0.2804
Cholesteryl sulfate log2 ratio (+MMV007839/-MMV007839) (Av 1hr, 6 μM): -0.2972
Citrate log2 ratio (+MMV007839/-MMV007839) (Av 1hr, 6 μM): -0.1229
CoA log2 ratio (+MMV007839/-MMV007839) (Av 1hr, 6 μM): -0.4384
Cyclic AMP log2 ratio (+MMV007839/-MMV007839) (Av 1hr, 6 μM): -0.8135
Cytidine log2 ratio (+MMV007839/-MMV007839) (Av 1hr, 6 μM): -0.7749
D-Glucono-1-4-lactone log2 ratio (+MMV007839/-MMV007839) (Av 1hr, 6 μM): 1.593
DALT log2 ratio (+MMV007839/-MMV007839) (Av 1hr, 6 μM): -0.5028
DEVG log2 ratio (+MMV007839/-MMV007839) (Av 1hr, 6 μM): 0.001555
DGLA log2 ratio (+MMV007839/-MMV007839) (Av 1hr, 6 μM): -0.4525
DLS log2 ratio (+MMV007839/-MMV007839) (Av 1hr, 6 μM): -0.423
Deoxycytidine log2 ratio (+MMV007839/-MMV007839) (Av 1hr, 6 μM): 1.92
Dihydroorotate log2 ratio (+MMV007839/-MMV007839) (Av 1hr, 6 μM): -0.5278
